What was measured:
common lambsquarters [1] = assay: Soil treatment test for upland field; format: in vivo, Chenopodium album; design: key: 0 = normal development, 5 = all killed; details: 500 g/ha, 3 weeks, glass house 25° C.
Description: (§1) The herbicidal effects are evaluated according to the following 6 ranks as compared with non-treated district. (0: normal development, 1: Less damaged, 2: Slightly damaged, 3: Moderately damaged, 4: Severely damaged, 5: All killed). Incidentally, “-” in the column means not investigated.
(§2) Wagner pots, each having an area of 1/5000 are, were packed with Ube soil (alluvial soil), and then each seed of corn, soybean, cotton, wheat, solgum, sugar beat, Large crabgrass, barnyard grass, green foxtail, blackgrass, annual bluegrass, common lambsquarters, livid amaranth, velvetleaf, morning glory, common Cocklebur (Xanthium strumarium) and sicklepod (Cassia obtusifolia) were planted and covered with soil.
(§3) Each wettable powder of the desired compounds (I) shown in Tables 1 to 21, 24, 25, 28 and 29 prepared in accordance with Example 2 was diluted with water containing a surfactant (0.05%) and uniformly sprayed on the surface of each soil so that an effective concentration of the compound (I) in each herbicide became 500 g/ha.
(§4) These plants were controlled in a glass house at an average temperature of 25° C. for 3 weeks, and then herbicidal effects thereof were investigated.
(§5) The herbicidal effects were evaluated according to the evaluation method described in the above (1).

morning glory [2] = assay: Soil treatment test for upland field; format: in vivo, Ipomoea spps.; design: key: 0 = normal development, 5 = all killed; details: 500 g/ha, 3 weeks, glass house 25° C.
Description: as §1, §2, §3, §4, §5

annual bluegrass [3] = assay: Foliar spread test for upland field; format: in vivo, Poa annua; design: key: 0 = normal development, 5 = all killed (6 ranks vs. untreated); details: foliar spray, 500 ppm, 3 weeks, glass house 25° C.
Description: as §1
(§6) Wagner pots, each having an area of 1/5000 are, were packed with volcanic ash soil and then each seed of corn, soybean, cotton, wheat, solgum, sugar beat, Large crabgrass, barnyardgrjass, green foxtail, blackgrass, annual bluegrass, common lambsquarters, livid amaranth, velvetleaf, morning glory, Xanthium pensylvanicum and Cassia obtusifolia was planted, covered with soil and grown in a glass house at an average temperature of 25° C. for about 2 weeks.
(§7) Each wettable powder of the desired compounds (I) shown in Tables 1 to 21, 24, 25, 28 and 29 prepared in accordance with Example 2 was diluted to 500 ppm with water containing a surfactant (0.5%) and then uniformly sprayed on the above respective plants.
(§8) After these plants were controlled in a glass house at an average temperature of 25° C. for 3 weeks, the herbicidal effects thereof were investigated.
as §5

annual bluegrass [4] = assay: Soil treatment test for upland field; format: in vivo, Poa annua; design: key: 0 = normal development, 5 = all killed; details: 500 g/ha, 3 weeks, glass house 25° C.
Description: as §1, §2, §3, §4, §5

blackgrass [5] = assay: Soil treatment test for upland field; format: in vivo, Alopecurus aegualis; design: key: 0 = normal development, 5 = all killed; details: 500 g/ha, 3 weeks, glass house 25° C.
Description: as §1, §2, §3, §4, §5

common lambsquarters [6] = assay: Foliar spread test for upland field; format: in vivo, Chenopodium album; design: key: 0 = normal development, 5 = all killed (6 ranks vs. untreated); details: foliar spray, 500 ppm, 3 weeks, glass house 25° C.
Description: as §1, §6, §7, §8, §5

barnyard grass = assay: Soil treatment test for upland field; format: in vivo, Eschinochloa crusgalli; design: key: 0 = normal development, 5 = all killed; details: 500 g/ha, 3 weeks, glass house 25° C.
Description: as §1, §2, §3, §4, §5

velvetleaf [7] = assay: Soil treatment test for upland field; format: in vivo, Abutilon theophrasti; design: key: 0 = normal development, 5 = all killed; details: 500 g/ha, 3 weeks, glass house 25° C.
Description: as §1, §2, §3, §4, §5

velvetleaf [8] = assay: Foliar spread test for upland field; format: in vivo, Abutilon theophrasti; design: key: 0 = normal development, 5 = all killed (6 ranks vs. untreated); details: foliar spray, 500 ppm, 3 weeks, glass house 25° C.
Description: as §1, §6, §7, §8, §5

blackgrass [9] = assay: Foliar spread test for upland field; format: in vivo, Alopecurus aegualis; design: key: 0 = normal development, 5 = all killed (6 ranks vs. untreated); details: foliar spray, 500 ppm, 3 weeks, glass house 25° C.
Description: as §1, §6, §7, §8, §5

barnyardgrjass = assay: Foliar spread test for upland field; format: in vivo, Eschinochloa crusgalli; design: key: 0 = normal development, 5 = all killed (6 ranks vs. untreated); details: foliar spray, 500 ppm, 3 weeks, glass house 25° C.
Description: as §1, §6, §7, §8, §5

cotton = assay: Foliar spread test for upland field; format: in vivo; design: key: 0 = normal development, 5 = all killed (6 ranks vs. untreated); details: foliar spray, 500 ppm, 3 weeks, glass house 25° C.
Description: as §1, §6, §7, §8, §5

solgum [10] = assay: Foliar spread test for upland field; format: in vivo; design: key: 0 = normal development, 5 = all killed (6 ranks vs. untreated); details: foliar spray, 500 ppm, 3 weeks, glass house 25° C.
Description: as §1, §6, §7, §8, §5

sugar beat [11] = assay: Foliar spread test for upland field; format: in vivo; design: key: 0 = normal development, 5 = all killed (6 ranks vs. untreated); details: foliar spray, 500 ppm, 3 weeks, glass house 25° C.
Description: as §1, §6, §7, §8, §5

soybean [12] = assay: Foliar spread test for upland field; format: in vivo; design: key: 0 = normal development, 5 = all killed (6 ranks vs. untreated); details: foliar spray, 500 ppm, 3 weeks, glass house 25° C.
Description: as §1, §6, §7, §8, §5

wheat [13] = assay: Foliar spread test for upland field; format: in vivo; design: key: 0 = normal development, 5 = all killed (6 ranks vs. untreated); details: foliar spray, 500 ppm, 3 weeks, glass house 25° C.
Description: as §1, §6, §7, §8, §5

corn [14] = assay: Foliar spread test for upland field; format: in vivo; design: key: 0 = normal development, 5 = all killed (6 ranks vs. untreated); details: foliar spray, 500 ppm, 3 weeks, glass house 25° C.
Description: as §1, §6, §7, §8, §5

Large crabgrass [15] = assay: Foliar spread test for upland field; format: in vivo, Digitaria adscendens; design: key: 0 = normal development, 5 = all killed (6 ranks vs. untreated); details: foliar spray, 500 ppm, 3 weeks, glass house 25° C.
Description: as §1, §6, §7, §8, §5

green foxtail [16] = assay: Soil treatment test for upland field; format: in vivo, Setaria viridis; design: key: 0 = normal development, 5 = all killed; details: 500 g/ha, 3 weeks, glass house 25° C.
Description: as §1, §2, §3, §4, §5

green foxtail [17] = assay: Foliar spread test for upland field; format: in vivo, Setaria viridis; design: key: 0 = normal development, 5 = all killed (6 ranks vs. untreated); details: foliar spray, 500 ppm, 3 weeks, glass house 25° C.
Description: as §1, §6, §7, §8, §5

livid amaranth [18] = assay: Soil treatment test for upland field; format: in vivo, Amaranthus lividus; design: key: 0 = normal development, 5 = all killed; details: 500 g/ha, 3 weeks, glass house 25° C.
Description: as §1, §2, §3, §4, §5

Large crabgrass [19] = assay: Soil treatment test for upland field; format: in vivo, Digitaria adscendens; design: key: 0 = normal development, 5 = all killed; details: 500 g/ha, 3 weeks, glass house 25° C.
Description: as §1, §2, §3, §4, §5

solgum [20] = assay: Soil treatment test for upland field; format: in vivo; design: key: 0 = normal development, 5 = all killed; details: 500 g/ha, 3 weeks, glass house 25° C.
Description: as §1, §2, §3, §4, §5

sugar beat [21] = assay: Soil treatment test for upland field; format: in vivo; design: key: 0 = normal development, 5 = all killed; details: 500 g/ha, 3 weeks, glass house 25° C.
Description: as §1, §2, §3, §4, §5

soybean [22] = assay: Soil treatment test for upland field; format: in vivo; design: key: 0 = normal development, 5 = all killed; details: 500 g/ha, 3 weeks, glass house 25° C.
Description: as §1, §2, §3, §4, §5

wheat [23] = assay: Soil treatment test for upland field; format: in vivo; design: key: 0 = normal development, 5 = all killed; details: 500 g/ha, 3 weeks, glass house 25° C.
Description: as §1, §2, §3, §4, §5

corn [24] = assay: Soil treatment test for upland field; format: in vivo; design: key: 0 = normal development, 5 = all killed; details: 500 g/ha, 3 weeks, glass house 25° C.
Description: as §1, §2, §3, §4, §5

morning glory [25] = assay: Foliar spread test for upland field; format: in vivo, Ipomoea spps.; design: key: 0 = normal development, 5 = all killed (6 ranks vs. untreated); details: foliar spray, 500 ppm, 3 weeks, glass house 25° C.
Description: as §1, §6, §7, §8, §5

livid amaranth [26] = assay: Foliar spread test for upland field; format: in vivo, Amaranthus lividus; design: key: 0 = normal development, 5 = all killed (6 ranks vs. untreated); details: foliar spray, 500 ppm, 3 weeks, glass house 25° C.
Description: as §1, §6, §7, §8, §5

SMILES	Effects Common lambsquarters (common lambsquarters [1])	Effects Morning glory (morning glory [2])	Effects Annual bluegrass (annual bluegrass [3])	Effects Annual bluegrass (annual bluegrass [4])	Effects Blackgrass (blackgrass [5])	Effects Common lambsquarters (common lambsquarters [6])	Effects Barnyardgrass (barnyard grass)	Effects Velvetleaf (velvetleaf [7])	Effects Velvetleaf (velvetleaf [8])	Effects Blackgrass (blackgrass [9])	Effects Barnyardgrass (barnyardgrjass)	Effects Sotton (cotton)	Effects Solgum (solgum [10])	Effects Sugar beat (sugar beat [11])	Effects Soybean (soybean [12])	Effects Wheat (wheat [13])	Effects Corn (corn [14])	Effects Large crabgrass (Large crabgrass [15])	Effects Green foxtail (green foxtail [16])	Effects Green foxtail (green foxtail [17])	further results
CC/C(=C\c1cccc(C(F)(F)F)c1)c1nc2cc(Cl)ccc2o1 [I-c-55, (E)-2-(5-chlorobenzoxazol-2-yl)-1-(3-trifluoromethylphenyl)butene]	5	5	4	5	5	5	5	5	4	4	4	4	3	5	5	3	3	4	5	5	Effects Livid amaranth (livid amaranth [18]): 5; Effects Large crabgrass (Large crabgrass [19]): 5; Effects Solgum (solgum [20]): 1; Effects Sugar beat (sugar beat [21]): 5; Effects Soybean (soybean [22]): 4; Effects Wheat (wheat [23]): 0; Effects Corn (corn [24]): 1; Effects Morning glory (morning glory [25]): 5; Effects Livid amaranth (livid amaranth [26]): 4
CCC(=Cc1cccc(C(F)(F)F)c1)c1nc2cc([N+](=O)[O-])ccc2o1 [I-c-72]	5	4	4	5	5	5	5	5	3	3	3	4	3	4	5	2	3	4	5	4	Effects Livid amaranth (livid amaranth [18]): 5; Effects Large crabgrass (Large crabgrass [19]): 5; Effects Solgum (solgum [20]): 3; Effects Sugar beat (sugar beat [21]): 5; Effects Soybean (soybean [22]): 5; Effects Wheat (wheat [23]): 2; Effects Corn (corn [24]): 2; Effects Morning glory (morning glory [25]): 5; Effects Livid amaranth (livid amaranth [26]): 5
CCCC(=Cc1cccc(C(F)(F)F)c1)c1nc2cc(C(F)(F)F)ccc2o1 [I-c-88]	5	5	4	5	5	5	5	5	4	5	2	5	3	5	5	2	4	4	5	5	Effects Livid amaranth (livid amaranth [18]): 5; Effects Large crabgrass (Large crabgrass [19]): 5; Effects Solgum (solgum [20]): 4; Effects Sugar beat (sugar beat [21]): 5; Effects Soybean (soybean [22]): 5; Effects Wheat (wheat [23]): 2; Effects Corn (corn [24]): 3; Effects Morning glory (morning glory [25]): 5; Effects Livid amaranth (livid amaranth [26]): 5
CCC(=Cc1cccc(C(F)(F)F)c1)c1nc2cc(Cl)c(C)cc2o1 [I-c-131]	5	5	4	5	5	5	5	5	4	4	3	5	2	4	5	2	3	4	5	4	Effects Livid amaranth (livid amaranth [18]): 5; Effects Large crabgrass (Large crabgrass [19]): 5; Effects Solgum (solgum [20]): 3; Effects Sugar beat (sugar beat [21]): 5; Effects Soybean (soybean [22]): 1; Effects Wheat (wheat [23]): 1; Effects Corn (corn [24]): 1; Effects Morning glory (morning glory [25]): 5; Effects Livid amaranth (livid amaranth [26]): 5
CC(=Cc1cccc(C(F)(F)F)c1)c1nc2cc(C#N)c(F)cc2o1 [I-c-135]	5	4	5	5	5	5	4	5	4	5	3	4	3	5	4	2	2	4	5	5	Effects Livid amaranth (livid amaranth [18]): 5; Effects Large crabgrass (Large crabgrass [19]): 5; Effects Solgum (solgum [20]): 1; Effects Sugar beat (sugar beat [21]): 5; Effects Soybean (soybean [22]): 2; Effects Wheat (wheat [23]): 1; Effects Corn (corn [24]): 1; Effects Morning glory (morning glory [25]): 5; Effects Livid amaranth (livid amaranth [26]): 5
